Test system: RNA isoforms in PNN 1-46 SMA type I patient-derived fibroblasts
Experiment: RNA Abundance Modulation (RNA isoform abundance, iFPM, HiSeq RNA sequencing)
Assay type: cell-based, human
Details: 3 μM
Experimental: Cells from a cell line of interest are cultured in conditions sufficient to yield the number of cells capable of generating enough RNA for subsequent sequencing steps. Cells from the tested cell line are contacted with a compound described herein.
To culture said cells, they are seeded, at appropriate concentrations in a volume of media in a cell culture container and incubated for 4, 5, 6, 7, 8, 9, 10, or more hours. A concentrated solution of compound in a vehicle (e.g., DMSO) is then added in sufficient volume to result in the intended final concentration of the compound, for example 100 nM, 500 nM, 1 μM, 5 μM, 10 μM, 15 μM, 20 μM, or more. The cells may also be treated with vehicle alone, as a control. A number of replicates of each concentration or control may be made (e.g., 2 replicates). The cells are then incubated at a constant temperature appropriate for cell culture of the particular cell line (e.g., 37° C.) for 6, 12, 18, 24, 48, or more hours. After incubation, the growth medium is removed and the cells are washed with the appropriate buffer (e.g., PBS). Cells are then removed from adherence to the cell culture container by treatment with a solution containing trypsin, and the trypsin subsequently quenched with the appropriate volume of buffer (e.g., DMEM-FBS). The cells are then pelleted with gentle centrifugation (e.g., ≤90×g centrifugal force) and resuspended in a buffer to lyse the cells for extraction of RNA. The cell lysates may then be frozen (e.g., at −80° C.) or, alternately, may immediately be used in a procedure to purify the RNA (e.g. by use of the RNEASY PLUS® minikit). The RNA from cell lysates is eluted in the appropriate volume of buffer (e.g., RNEASE-FREE H2O®). The resulting purified RNA may then be sequenced (e.g., using RNASeq) or analyzed using a human exon array (e.g., by GENECHIP® human exon array) to determine changes in the RNA levels in those cells treated with compound compared to those cells treated only with DMSO. The purified RNA may also be quantified by other methods known in the art.
Using the RNA data obtained from sequencing, exon array, or other methods, a statistical analysis can reveal changes in the RNA levels of compound-treated compared with control. For example, t-test p-values may be calculated for the data obtained through sequencing and exon array methods in order to compare compound-treated cells to those treated with the DMSO control. […] Analysis of the sequencing and exon array data may then also yield predictions about the cause of the aberrant amount of an RNA transcript in the cells (e.g., perturbation of RNA splicing, RNA transcription, or RNA stability). These predictions may be further confirmed by methods known in the art. For example, RT-PCR and RT-qPCR may be used to confirm the change in amount of RNA transcripts for one or more particular transcripts of interest.
Following the methods described above in Example 1, PNN 1-46 SMA type I patient-derived fibroblasts were treated with 300 nM or 3 μM Compounds 774 and 808 in 0.5% DMSO.
700,000 cells were seeded in 10 mL of medium (DMEM plus 10% FBS) in a T-75 flask. Cells were allowed to attach for at least 4 hrs, after which 50 μL of a 200× compound solution (100% DMSO) was added to each well, and the plate was incubated at 37° C. for 24 hrs.
At the end of the incubation period, the supernatant was removed and the cells where washed with PBS. TrypLE (Invitrogen) express solution was added (e.g. 1.5 mL per one T75 flask). The flasks were incubated for 3 to 5 min at 37° C. The trypsin was then quenched, e.g., by adding 10 mL DMEM-FBS.
Next, the cells were pelleted using gentle centrifugation without exceeding 90×g centrifugal force. The supernatant was removed and the cell pellet was re-suspended in 600 μL RLT buffer (the RLT buffer was supplemented with beta-mercaptoethanol according to the RNeasy protocol manual) by pipetting up and down until the pellet was completely dissolved […]

CCc1nc(C)cn2nc(-c3cc(=O)n4cc(C5CCN(C)CC5)cc(C)c4n3)cc12 [Compound 774]
L2FC (x + 1) (TIMP2 AK294290): −6.520 | L2abs (Cpd-DMSO) (TIMP2 AK294290): 6.50 | abs (Cpd-DMSO) (TIMP2 AK294290): 91 iFPM | amp FC (x + 1) (TIMP2 AK294290): 91.79 | ave Cpd (TIMP2 AK294290): 0 iFPM | FC (x + 1) (TIMP2 BC039613): 0.9284 | L2FC (x + 1) (TIMP2 BC039613): −0.107 | L2abs (Cpd-DMSO) (TIMP2 BC039613): 11.17 | abs (Cpd-DMSO) (TIMP2 BC039613): 2306 iFPM | amp FC (x + 1) (TIMP2 BC039613): 1.08 | ave Cpd (TIMP2 BC039613): 29887 iFPM | FC (x + 1) (TIMP2 NM_003255): 0.9585 | L2FC (x + 1) (TIMP2 NM_003255): −0.061 | L2abs (Cpd-DMSO) (TIMP2 NM_003255): 9.77 | abs (Cpd-DMSO) (TIMP2 NM_003255): 876 iFPM | amp FC (x + 1) (TIMP2 NM_003255): 1.04 | ave Cpd (TIMP2 NM_003255): 20235 iFPM | FC (x + 1) (TLK1 AK091975): 0.7110 | L2FC (x + 1) (TLK1 AK091975): −0.492 | L2abs (Cpd-DMSO) (TLK1 AK091975): 6.56 | abs (Cpd-DMSO) (TLK1 AK091975): 95 iFPM | amp FC (x + 1) (TLK1 AK091975): 1.41 | ave Cpd (TLK1 AK091975): 232 iFPM | FC (x + 1) (TLK1 BX537631): 1.2332 | L2FC (x + 1) (TLK1 BX537631): 0.302 | L2abs (Cpd-DMSO) (TLK1 BX537631): 0.14 | abs (Cpd-DMSO) (TLK1 BX537631): 1 iFPM | amp FC (x + 1) (TLK1 BX537631): 1.23 | ave Cpd (TLK1 BX537631): 5 iFPM | FC (x + 1) (TLK1 E09283): 1.1041 | L2FC (x + 1) (TLK1 E09283): 0.143 | L2abs (Cpd-DMSO) (TLK1 E09283): 1.54 | abs (Cpd-DMSO) (TLK1 E09283): 3 iFPM | amp FC (x + 1) (TLK1 E09283): 1.10 | ave Cpd (TLK1 E09283): 30 iFPM | FC (x + 1) (TLK1 NM_012290): 1.4535 | L2FC (x + 1) (TLK1 NM_012290): 0.540 | L2abs (Cpd-DMSO) (TLK1 NM_012290): 8.52 | abs (Cpd-DMSO) (TLK1 NM_012290): 367 iFPM | amp FC (x + 1) (TLK1 NM_012290): 1.45 | ave Cpd (TLK1 NM_012290): 1174 iFPM | FC (x + 1) (TLK1 NM_001136554): 0.3744 | L2FC (x + 1) (TLK1 NM_001136554): −1.417 | L2abs (Cpd-DMSO) (TLK1 NM_001136554): 8.77 | abs (Cpd-DMSO) (TLK1 NM_001136554): 437 iFPM | amp FC (x + 1) (TLK1 NM_001136554): 2.67 | ave Cpd (TLK1 NM_001136554): 260 iFPM | FC (x + 1) (TLK1 NM_001136555): 4.0350 | L2FC (x + 1) (TLK1 NM_001136555): 2.013 | L2abs (Cpd-DMSO) (TLK1 NM_001136555): 6.40 | abs (Cpd-DMSO) (TLK1 NM_001136555): 84 iFPM | amp FC (x + 1) (TLK1 NM_001136555): 4.04 | ave Cpd (TLK1 NM_001136555): 111 iFPM | FC (x + 1) (TMEM154 NM_152680): 2.2609 | L2FC (x + 1) (TMEM154 NM_152680): 1.177 | L2abs (Cpd-DMSO) (TMEM154 NM_152680): 8.26 | abs (Cpd-DMSO) (TMEM154 NM_152680): 306 iFPM | amp FC (x + 1) (TMEM154 NM_152680): 2.26 | ave Cpd (TMEM154 NM_152680): 548 iFPM | FC (x + 1) (TNS3 NM_022748): 0.1472 | L2FC (x + 1) (TNS3 NM_022748): −2.764 | L2abs (Cpd-DMSO) (TNS3 NM_022748): 9.92 | abs (Cpd-DMSO) (TNS3 NM_022748): 971 iFPM | amp FC (x + 1) (TNS3 NM_022748): 6.79 | ave Cpd (TNS3 NM_022748): 167 iFPM | FC (x + 1) (TOMM5 CCDS47968): 0.9090 | L2FC (x + 1) (TOMM5 CCDS47968): −0.138 | L2abs (Cpd-DMSO) (TOMM5 CCDS47968): −2.28 | abs (Cpd-DMSO) (TOMM5 CCDS47968): 0 iFPM | amp FC (x + 1) (TOMM5 CCDS47968): 1.10 | ave Cpd (TOMM5 CCDS47968): 1 iFPM | FC (x + 1) (TOMM5 CR627326): 0.4244 | L2FC (x + 1) (TOMM5 CR627326): −1.236 | L2abs (Cpd-DMSO) (TOMM5 CR627326): 2.64 | abs (Cpd-DMSO) (TOMM5 CR627326): 6 iFPM

Source: patent publication US10688099B2, “Methods for modulating the amount of RNA transcripts” (PTC Therapeutics, Inc., priority 2013, dated 2020)
